Experimental findings from the METLIN SMRT retention time set (Domingo-Almenara et al. 2019) are described below.

The nature of the data set: gradient 5% acetonitrile 3 min, to 50% in 2 min, to 85% in 15 min, held 3 min, 100 µL/min. Particulars: column: Zorbax Extend-C18 2.1 x 50 mm; eluents: water / acetonitrile, 0.1% formic acid. In a few lines: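 Mixtures of ~100 pure standards were chromatographed on a Zorbax Extend-C18 column (2.1 × 50 mm, 1.8 μm) at 100 μL/min using water and acetonitrile, each with 0.1% formic acid. Detection used a quadrupole time-of-flight mass spectrometer in positive and negative ionization mode, and data collection spanned 3 months. Retention time was obtained from adduct peaks picked computationally and each checked manually.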
As to `COC(=O)C1=CN(c2cccc(C)c2)c2cc(F)ccc2S1(=O)=O`, the RP-LC retention time was 911 s.

`CCOc1ccccc1C(=O)N(CC)c1nc(-c2ccc(C)cc2)cs1` yielded an RP-LC retention time of 1420 s.

`O=C(Cn1nc2c3cc(F)ccc3ncn2c1=O)Nc1ccc(Cl)cc1` registered an RP-LC retention time of 744 s.

`Cc1cc(C)c2nc(Nc3nccc(C)n3)nc(C)c2c1`: the RP-LC retention time stood at 640 s.

`CCOc1ccc(OCC)c(NS(=O)(=O)c2cc(-c3c(CC)noc3NC(C)=O)ccc2C)c1` had an RP-LC retention time of 932 s.

With `O=S(=O)(c1ccc(Br)cc1)N1CCc2nc(-c3ccc(F)cc3)ncc2C1`, the RP-LC retention time is 1170 s.

On to `COc1ccc(CNC(=O)N2CCC(COCc3ccccc3)CC2)cc1OC`, for which the RP-LC retention time was 814 s.

`CCCC(=O)Nc1nc(-c2ccc3c(c2)N(C)C(=O)CO3)c(C)s1` had an RP-LC retention time of 856 s.

In turn, `COc1ccc(-c2cn3c(CC(=O)NCc4cccc(Br)c4)csc3n2)cc1OC` returned an RP-LC retention time of 764 s.

Turning to `Cc1noc(C)c1CC(=O)N1CCC2(CC1)N(CC1CC1)C(=O)CS2=O` (stereo not drawn), the RP-LC retention time turned out to be 613 s.

In the case of `CCNC(=O)C1CCN(c2nc3ccc(-c4ccc(OC)cc4)nc3s2)CC1`, the RP-LC retention time was determined as 825 s.

On to `O=C(CCCN1CCN(Cc2ccc(F)cc2)C(=O)C1=O)Nc1ccc(Br)cc1F`, for which the RP-LC retention time worked out at 814 s.

Consider `CC(C)Oc1ccc(CNS(=O)(=O)c2cc(-c3nc(C(C)(C)C)cs3)cs2)cc1`, for which the RP-LC retention time turned out to be 1320 s.

`COc1ccc(Nc2nccc(NCCO)n2)cc1` displayed an RP-LC retention time of 610 s.

Compound `CCn1ccc2c(cc(C(=O)Nc3cc(Cl)c(OC)cc3OC)n2C)c1=O` had an RP-LC retention time of 810 s.

On to `O=C(C1CCN(S(=O)(=O)c2cc(-c3noc(C4CCC4)n3)cs2)CC1)N1CCc2ccccc21`, for which the RP-LC retention time came out at 1150 s.

Compound `COc1ccc2c(CCNC(=O)Nc3ccccc3)c[nH]c2c1` had an RP-LC retention time of 791 s.

`CCC1Oc2ccc(S(=O)(=O)N3CCC(C(=O)Nc4ccc(C)c(Cl)c4)CC3)cc2NC1=O` (stereo not drawn) had an RP-LC retention time of 1020 s.

`CCCNC(=O)CSc1cc(NCc2ccc(Cl)cc2)ncn1` returned an RP-LC retention time of 778 s.

On to `O=C(CN1C(=O)N/C(=C\c2ccc(Cl)cc2)C1=O)Nc1ccc(Cl)cc1`, for which the RP-LC retention time was found to be 899 s.

`O=C(C1CC(=O)N(c2ccccc2)C1)N1CCN(c2ccc(-c3noc(C4CCC4)n3)cc2)CC1` (stereo not drawn) displayed an RP-LC retention time of 970 s.

`CCOc1ccc(-c2nc(CNC(=O)Nc3cc(OC)ccc3OC)c(C)o2)cc1` returned an RP-LC retention time of 963 s.

Consider `CC(C(=O)N1CCN(C2CCCCC2)CC1)C1CCN(S(=O)(=O)c2cccs2)CC1` (stereo not drawn), for which the RP-LC retention time was 664 s.

The compound `O=C(NC1CCN(c2cc(-c3ccc(Cl)cc3)[nH]n2)C1)c1ccc(F)c(F)c1` (stereo not drawn) showed an RP-LC retention time of 839 s.

In turn, `Cc1ccc(NC(=O)C2CCN(C(=O)C3Sc4ccccc4NC3=O)CC2)c(C)c1` (stereo not drawn) came in with an RP-LC retention time of 762 s.

Compound `O=C(CSc1ncnc2ccccc12)NCc1ccccc1` gave an RP-LC retention time of 708 s.

In turn, `Cc1ccc(S(=O)(=O)N2C[C@@H]3C[C@H]2C[C@@H]3NC(=O)c2cccs2)cc1Cl` displayed an RP-LC retention time of 992 s.

Turning to `O=C(c1cccc(Br)c1)N1CCN(C(=O)N2CCOCC2)CC1`, the RP-LC retention time turned out to be 631 s.

`O=C(Cn1cnc2nc3c(cc2c1=O)CCCC3)NCc1cccc(Br)c1` yielded an RP-LC retention time of 756 s.

For `C=CCNC(=O)c1ccc2c(c1)c(C)c(C)n2C`, the RP-LC retention time was found to be 828 s.

As to `CS(=O)(=O)Nc1ccc(CC(=O)NCC(F)(F)F)cc1`, the RP-LC retention time is 623 s.

Compound `O=C(c1ccc(F)cc1F)N1CCN(c2ccc3nncn3n2)CC1` came in with an RP-LC retention time of 601 s.

Compound `O=C(Nc1ccc(-n2cnc(C(=O)N3CCN(c4ccccc4)CC3)c2)nc1)C1CC1` registered an RP-LC retention time of 726 s.
